# Measured values: the kinase profiling compilation of Christmann-Franck et al. (2016)
# Tests used:
# Experiment in all cases: radiometric filter-binding kinase assay, Kinase HotSpot
# Conditions in all cases: compound 0.5 µM; ATP 10 µM
# ADRBK2 (human) = ADRBK2 (human) (UniProt P35626)
# AXL (human) = AXL (human) (UniProt P30530)
# CAMK1 (human) = CAMK1 (human) (UniProt Q14012)
# CDK6 CCND1 (human) = CDK6 CCND1 (human) (UniProt Q00534+P24385)
# CDK9 CCNT1 (human) = CDK9 CCNT1 (human) (UniProt P50750+O60563)
# CLK4 (human) = CLK4 (human) (UniProt Q9HAZ1)
# CSNK1A1 (human) = CSNK1A1 (human) (UniProt P48729)
# Chain of CSNK1A1 (human) (P48729 whole entry, looked up): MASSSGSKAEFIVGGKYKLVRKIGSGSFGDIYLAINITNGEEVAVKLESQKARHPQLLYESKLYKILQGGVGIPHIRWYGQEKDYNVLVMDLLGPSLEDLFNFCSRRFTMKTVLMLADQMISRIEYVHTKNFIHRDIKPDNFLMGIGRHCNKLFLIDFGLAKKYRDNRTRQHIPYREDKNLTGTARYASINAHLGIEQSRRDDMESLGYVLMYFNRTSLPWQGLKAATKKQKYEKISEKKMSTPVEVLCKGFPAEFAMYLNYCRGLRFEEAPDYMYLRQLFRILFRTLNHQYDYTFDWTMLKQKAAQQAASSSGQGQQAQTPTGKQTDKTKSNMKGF
# EPHB3 (human) = EPHB3 (human) (UniProt P54753)
# FGFR4 (human) = FGFR4 (human) (UniProt P22455)
# GRK6 (human) = GRK6 (human) (UniProt P43250)
# Chain of GRK6 (human) (P43250 whole entry, looked up): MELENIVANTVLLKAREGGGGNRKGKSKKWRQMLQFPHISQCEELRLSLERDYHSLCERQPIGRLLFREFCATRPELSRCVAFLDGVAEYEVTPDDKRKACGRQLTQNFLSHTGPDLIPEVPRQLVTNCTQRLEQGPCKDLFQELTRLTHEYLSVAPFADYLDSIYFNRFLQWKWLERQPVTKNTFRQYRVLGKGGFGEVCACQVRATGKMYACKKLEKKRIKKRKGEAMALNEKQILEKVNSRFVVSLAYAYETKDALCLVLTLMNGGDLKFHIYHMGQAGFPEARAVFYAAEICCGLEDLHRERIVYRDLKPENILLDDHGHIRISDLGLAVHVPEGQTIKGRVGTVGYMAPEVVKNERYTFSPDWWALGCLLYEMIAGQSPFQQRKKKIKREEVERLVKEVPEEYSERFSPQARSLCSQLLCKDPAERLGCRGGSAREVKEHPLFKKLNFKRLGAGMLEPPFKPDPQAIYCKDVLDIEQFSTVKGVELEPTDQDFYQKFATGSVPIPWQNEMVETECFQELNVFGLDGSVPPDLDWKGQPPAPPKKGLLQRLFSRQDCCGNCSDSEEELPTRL
# LRRK2 (human) = LRRK2 (human) (UniProt Q5S007)
# LTK (human) = LTK (human) (UniProt P29376)
# MAP3K10 (human) = MAP3K10 (human) (UniProt Q02779)
# MAP3K11 (human) = MAP3K11 (human) (UniProt Q16584)
# MAPK12 (human) = MAPK12 (human) (UniProt P53778)
# MAPKAPK5 (human) = MAPKAPK5 (human) (UniProt Q8IW41)
# Chain of MAPKAPK5 (human) (Q8IW41 whole entry, looked up): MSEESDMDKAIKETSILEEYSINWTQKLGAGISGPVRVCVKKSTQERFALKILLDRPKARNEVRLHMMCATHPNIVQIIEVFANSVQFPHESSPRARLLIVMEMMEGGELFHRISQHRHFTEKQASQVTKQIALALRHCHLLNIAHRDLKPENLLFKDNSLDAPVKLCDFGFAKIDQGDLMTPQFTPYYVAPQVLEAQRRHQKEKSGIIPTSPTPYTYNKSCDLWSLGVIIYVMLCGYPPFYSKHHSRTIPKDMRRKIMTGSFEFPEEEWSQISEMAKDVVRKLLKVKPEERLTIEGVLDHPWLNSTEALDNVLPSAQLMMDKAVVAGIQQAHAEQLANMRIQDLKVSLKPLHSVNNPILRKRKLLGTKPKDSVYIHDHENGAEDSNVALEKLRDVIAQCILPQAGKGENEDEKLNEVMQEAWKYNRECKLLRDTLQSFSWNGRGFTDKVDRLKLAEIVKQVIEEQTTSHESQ
# MARK2 (human) = MARK2 (human) (UniProt Q7KZI7)
# Chain of MARK2 (human) (Q7KZI7 whole entry, looked up): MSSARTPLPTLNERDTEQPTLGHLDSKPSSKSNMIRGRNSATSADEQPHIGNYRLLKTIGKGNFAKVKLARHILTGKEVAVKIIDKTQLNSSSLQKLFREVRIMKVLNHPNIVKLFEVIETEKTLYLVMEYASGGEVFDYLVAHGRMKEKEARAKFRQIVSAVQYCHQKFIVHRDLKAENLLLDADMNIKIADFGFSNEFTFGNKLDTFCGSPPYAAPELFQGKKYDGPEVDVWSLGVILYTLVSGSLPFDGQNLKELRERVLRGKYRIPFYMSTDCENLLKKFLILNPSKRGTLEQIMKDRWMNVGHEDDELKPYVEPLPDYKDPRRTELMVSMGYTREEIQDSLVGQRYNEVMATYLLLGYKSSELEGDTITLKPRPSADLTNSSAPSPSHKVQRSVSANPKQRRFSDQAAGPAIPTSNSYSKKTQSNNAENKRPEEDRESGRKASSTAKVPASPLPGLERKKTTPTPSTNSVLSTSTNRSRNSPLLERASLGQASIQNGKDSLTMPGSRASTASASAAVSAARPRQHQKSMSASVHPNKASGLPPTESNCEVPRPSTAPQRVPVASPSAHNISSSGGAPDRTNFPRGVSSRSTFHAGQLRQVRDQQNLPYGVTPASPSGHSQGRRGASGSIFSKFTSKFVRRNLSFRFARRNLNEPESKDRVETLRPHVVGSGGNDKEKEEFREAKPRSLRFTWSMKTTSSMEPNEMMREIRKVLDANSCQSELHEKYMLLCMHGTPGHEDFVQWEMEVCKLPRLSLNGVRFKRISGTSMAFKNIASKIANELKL
# MST1R (human) = MST1R (human) (UniProt Q04912)
# NEK1 (human) = NEK1 (human) (UniProt Q96PY6)
# Chain of NEK1 (human) (Q96PY6 whole entry, looked up): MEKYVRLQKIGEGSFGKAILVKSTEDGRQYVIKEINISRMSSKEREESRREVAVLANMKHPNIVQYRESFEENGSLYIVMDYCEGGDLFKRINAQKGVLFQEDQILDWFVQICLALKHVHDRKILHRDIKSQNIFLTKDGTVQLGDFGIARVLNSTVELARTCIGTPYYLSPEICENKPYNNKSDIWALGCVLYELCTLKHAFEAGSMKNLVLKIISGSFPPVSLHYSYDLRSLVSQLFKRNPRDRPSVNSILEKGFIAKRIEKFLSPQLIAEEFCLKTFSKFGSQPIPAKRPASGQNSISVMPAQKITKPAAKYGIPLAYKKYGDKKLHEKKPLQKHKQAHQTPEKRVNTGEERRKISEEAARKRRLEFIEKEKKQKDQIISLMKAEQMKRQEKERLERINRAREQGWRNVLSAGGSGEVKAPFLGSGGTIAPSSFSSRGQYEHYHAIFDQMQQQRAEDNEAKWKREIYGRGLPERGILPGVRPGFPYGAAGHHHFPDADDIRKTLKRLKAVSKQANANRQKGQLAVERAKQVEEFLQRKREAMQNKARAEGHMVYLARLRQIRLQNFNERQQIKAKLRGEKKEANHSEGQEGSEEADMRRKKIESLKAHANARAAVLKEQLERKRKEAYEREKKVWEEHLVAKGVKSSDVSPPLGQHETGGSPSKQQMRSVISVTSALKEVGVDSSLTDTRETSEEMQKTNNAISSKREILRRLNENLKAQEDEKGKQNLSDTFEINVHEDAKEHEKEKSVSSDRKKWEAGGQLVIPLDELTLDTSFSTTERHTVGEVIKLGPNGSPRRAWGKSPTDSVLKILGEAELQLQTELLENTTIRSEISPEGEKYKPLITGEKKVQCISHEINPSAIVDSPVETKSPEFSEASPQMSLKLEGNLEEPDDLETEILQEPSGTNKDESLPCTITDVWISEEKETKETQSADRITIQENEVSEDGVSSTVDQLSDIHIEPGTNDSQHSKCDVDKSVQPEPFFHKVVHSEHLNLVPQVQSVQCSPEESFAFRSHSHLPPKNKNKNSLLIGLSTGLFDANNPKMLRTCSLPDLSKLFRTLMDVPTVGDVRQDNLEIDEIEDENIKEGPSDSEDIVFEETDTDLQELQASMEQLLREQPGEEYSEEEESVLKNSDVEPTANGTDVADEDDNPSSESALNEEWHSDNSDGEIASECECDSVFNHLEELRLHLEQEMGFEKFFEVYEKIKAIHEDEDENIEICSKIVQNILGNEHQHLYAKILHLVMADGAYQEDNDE
# NEK7 (human) = NEK7 (human) (UniProt Q8TDX7)
# Chain of NEK7 (human) (Q8TDX7 whole entry, looked up): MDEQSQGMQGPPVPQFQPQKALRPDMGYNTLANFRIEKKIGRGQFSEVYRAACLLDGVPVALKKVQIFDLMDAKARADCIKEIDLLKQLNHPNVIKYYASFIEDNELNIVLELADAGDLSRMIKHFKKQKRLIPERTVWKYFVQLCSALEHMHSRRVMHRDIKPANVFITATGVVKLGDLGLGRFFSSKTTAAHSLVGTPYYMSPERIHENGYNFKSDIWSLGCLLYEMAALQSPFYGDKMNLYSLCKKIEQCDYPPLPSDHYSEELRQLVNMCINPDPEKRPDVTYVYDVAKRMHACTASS
# NEK9 (human) = NEK9 (human) (UniProt Q8TD19)
# NTRK1 (human) = NTRK1 (human) (UniProt P04629)
# PAK2 (human) = PAK2 (human) (UniProt Q13177)
# Chain of PAK2 (human) (Q13177 whole entry, looked up): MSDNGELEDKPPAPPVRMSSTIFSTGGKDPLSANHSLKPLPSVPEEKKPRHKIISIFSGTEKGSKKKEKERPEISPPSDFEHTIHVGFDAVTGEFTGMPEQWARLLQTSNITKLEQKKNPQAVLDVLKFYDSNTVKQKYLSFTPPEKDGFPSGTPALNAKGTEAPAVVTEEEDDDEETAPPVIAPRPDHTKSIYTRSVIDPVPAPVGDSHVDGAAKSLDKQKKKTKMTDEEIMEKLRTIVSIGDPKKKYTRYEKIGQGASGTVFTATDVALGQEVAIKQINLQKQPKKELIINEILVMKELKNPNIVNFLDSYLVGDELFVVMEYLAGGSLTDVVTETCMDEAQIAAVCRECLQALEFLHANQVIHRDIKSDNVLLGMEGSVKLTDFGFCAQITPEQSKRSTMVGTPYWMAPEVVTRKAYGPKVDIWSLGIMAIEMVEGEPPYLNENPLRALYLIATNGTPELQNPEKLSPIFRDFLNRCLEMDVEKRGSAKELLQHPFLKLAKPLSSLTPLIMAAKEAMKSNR
# PAK3 (human) = PAK3 (human) (UniProt O75914)
# PAK4 (human) = PAK4 (human) (UniProt O96013)
# PDPK1 (human) = PDPK1 (human) (UniProt O15530)
# PLK1 (human) = PLK1 (human) (UniProt P53350)
# PLK2 (human) = PLK2 (human) (UniProt Q9NYY3)
# PRKCG (human) = PRKCG (human) (UniProt P05129)
# PRKG2 (human) = PRKG2 (human) (UniProt Q13237)
# RET (human) = RET (human) (UniProt P07949)
# ROCK2 (human) = ROCK2 (human) (UniProt O75116)
# RPS6KA1 KD1 KD2 (human) = RPS6KA1 KD1 KD2 (human) (UniProt Q15418)
# RPS6KA3 KD1 KD2 (human) = RPS6KA3 KD1 KD2 (human) (UniProt P51812)
# SIK2 (human) = SIK2 (human) (UniProt Q9H0K1)
# SRMS (human) = SRMS (human) (UniProt Q9H3Y6)
# STK17A (human) = STK17A (human) (UniProt Q9UEE5)
# STK24 (human) = STK24 (human) (UniProt Q9Y6E0)
# STK25 (human) = STK25 (human) (UniProt O00506)
# TAOK1 (human) = TAOK1 (human) (UniProt Q7L7X3)
# WEE1 (human) = WEE1 (human) (UniProt P30291)
# ZAP70 (human) = ZAP70 (human) (UniProt P43403)
# Chain of ADRBK2 (human) (P35626 whole entry, looked up): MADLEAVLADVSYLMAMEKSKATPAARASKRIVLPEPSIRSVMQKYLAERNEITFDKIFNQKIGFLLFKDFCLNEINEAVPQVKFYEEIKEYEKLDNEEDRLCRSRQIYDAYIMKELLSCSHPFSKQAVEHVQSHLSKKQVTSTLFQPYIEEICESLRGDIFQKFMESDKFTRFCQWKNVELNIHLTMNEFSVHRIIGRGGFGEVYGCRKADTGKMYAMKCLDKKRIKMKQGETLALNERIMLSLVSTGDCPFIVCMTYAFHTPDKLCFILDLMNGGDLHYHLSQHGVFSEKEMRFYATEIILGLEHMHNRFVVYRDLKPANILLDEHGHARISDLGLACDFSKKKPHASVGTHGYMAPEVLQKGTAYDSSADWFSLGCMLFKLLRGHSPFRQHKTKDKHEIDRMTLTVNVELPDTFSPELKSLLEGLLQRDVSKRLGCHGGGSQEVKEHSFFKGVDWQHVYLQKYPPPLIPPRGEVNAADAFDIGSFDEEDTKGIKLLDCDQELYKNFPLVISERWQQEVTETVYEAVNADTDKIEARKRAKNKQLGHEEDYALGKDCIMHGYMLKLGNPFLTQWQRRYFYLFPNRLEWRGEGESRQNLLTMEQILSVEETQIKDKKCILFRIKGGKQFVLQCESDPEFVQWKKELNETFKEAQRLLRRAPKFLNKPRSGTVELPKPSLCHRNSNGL
smiles,measurement,setting,value
COc1cccc(-c2cc(=O)c3ccccc3o2)c1N,residual activity,ADRBK2 (human),94.7%
same,residual activity,AXL (human),127%
same,residual activity,CAMK1 (human),98.5%
same,residual activity,CDK6 CCND1 (human),95.5%
same,residual activity,CDK9 CCNT1 (human),93.6%
same,residual activity,CLK4 (human),86.3%
same,residual activity,CSNK1A1 (human),95.6%
same,residual activity,EPHB3 (human),91.9%
same,residual activity,FGFR4 (human),104%
same,residual activity,GRK6 (human),90.7%
same,residual activity,LRRK2 (human),101%
same,residual activity,LTK (human),75.4%
same,residual activity,MAP3K10 (human),90%
same,residual activity,MAP3K11 (human),95.9%
same,residual activity,MAPK12 (human),95.5%
same,residual activity,MAPKAPK5 (human),122%
same,residual activity,MARK2 (human),84.9%
same,residual activity,MST1R (human),93.4%
same,residual activity,NEK1 (human),81.2%
same,residual activity,NEK7 (human),94.7%
same,residual activity,NEK9 (human),102%
same,residual activity,NTRK1 (human),99.9%
same,residual activity,PAK2 (human),104%
same,residual activity,PAK3 (human),90.7%
same,residual activity,PAK4 (human),88.1%
same,residual activity,PDPK1 (human),98.3%
same,residual activity,PLK1 (human),88.2%
same,residual activity,PLK2 (human),92.5%
same,residual activity,PRKCG (human),100%
same,residual activity,PRKG2 (human),101%
same,residual activity,RET (human),107%
same,residual activity,ROCK2 (human),91.5%
same,residual activity,RPS6KA1 KD1 KD2 (human),92.7%
same,residual activity,RPS6KA3 KD1 KD2 (human),93.6%
same,residual activity,SIK2 (human),102%
same,residual activity,SRMS (human),104%
same,residual activity,STK17A (human),96.9%
same,residual activity,STK24 (human),108%
same,residual activity,STK25 (human),106%
same,residual activity,TAOK1 (human),77.9%
same,residual activity,WEE1 (human),83%
same,residual activity,ZAP70 (human),107%
N/C(=N\N=C/c1ccc(-c2cccc([N+](=O)[O-])c2)o1)N[N+](=O)[O-],residual activity,ADRBK2 (human),102%
same,residual activity,AXL (human),100%
same,residual activity,CAMK1 (human),106%
same,residual activity,CDK6 CCND1 (human),100%
same,residual activity,CDK9 CCNT1 (human),109%
same,residual activity,CLK4 (human),103%
same,residual activity,CSNK1A1 (human),113%
same,residual activity,EPHB3 (human),91.7%
same,residual activity,FGFR4 (human),106%
same,residual activity,GRK6 (human),98.3%
same,residual activity,LRRK2 (human),91%
same,residual activity,LTK (human),102%
same,residual activity,MAP3K10 (human),101%
same,residual activity,MAP3K11 (human),99.4%
same,residual activity,MAPK12 (human),93.4%
same,residual activity,MAPKAPK5 (human),94.6%
same,residual activity,MARK2 (human),108%
same,residual activity,MST1R (human),97.6%
same,residual activity,NEK1 (human),97.7%
same,residual activity,NEK7 (human),102%
same,residual activity,NEK9 (human),91.8%
same,residual activity,NTRK1 (human),96%
same,residual activity,PAK2 (human),103%
same,residual activity,PAK3 (human),95.1%
same,residual activity,PAK4 (human),95.3%
same,residual activity,PDPK1 (human),94.6%
same,residual activity,PLK1 (human),98.6%
same,residual activity,PLK2 (human),107%
same,residual activity,PRKCG (human),96.4%
same,residual activity,PRKG2 (human),98.7%
same,residual activity,RET (human),99.9%
same,residual activity,ROCK2 (human),86.3%
same,residual activity,RPS6KA1 KD1 KD2 (human),86.3%
same,residual activity,RPS6KA3 KD1 KD2 (human),101%
same,residual activity,SIK2 (human),91.6%
same,residual activity,SRMS (human),90.2%
same,residual activity,STK17A (human),100%
same,residual activity,STK24 (human),87.7%
same,residual activity,STK25 (human),86.3%
same,residual activity,TAOK1 (human),89.6%
same,residual activity,WEE1 (human),100%
same,residual activity,ZAP70 (human),93.1%
N#Cc1c(NC(=O)c2cccc3ccccc23)sc2c1CCCC2,residual activity,ADRBK2 (human),106%
same,residual activity,AXL (human),106%
same,residual activity,CAMK1 (human),108%
same,residual activity,CDK6 CCND1 (human),94%
same,residual activity,CDK9 CCNT1 (human),100%
same,residual activity,CLK4 (human),92%
same,residual activity,CSNK1A1 (human),91.1%
same,residual activity,EPHB3 (human),95.9%
same,residual activity,FGFR4 (human),109%
same,residual activity,GRK6 (human),108%
same,residual activity,LRRK2 (human),100%
same,residual activity,LTK (human),102%
same,residual activity,MAP3K10 (human),85.4%
same,residual activity,MAP3K11 (human),103%
same,residual activity,MAPK12 (human),95.6%
same,residual activity,MAPKAPK5 (human),96.6%
same,residual activity,MARK2 (human),105%
same,residual activity,MST1R (human),92.5%
same,residual activity,NEK1 (human),93.4%
same,residual activity,NEK7 (human),89.2%
same,residual activity,NEK9 (human),96%
same,residual activity,NTRK1 (human),105%
same,residual activity,PAK2 (human),103%
same,residual activity,PAK3 (human),105%
same,residual activity,PAK4 (human),95.2%
same,residual activity,PDPK1 (human),92.1%
same,residual activity,PLK1 (human),96.4%
same,residual activity,PLK2 (human),101%
same,residual activity,PRKCG (human),95.4%
same,residual activity,PRKG2 (human),111%
same,residual activity,RET (human),105%
same,residual activity,ROCK2 (human),98%
same,residual activity,RPS6KA1 KD1 KD2 (human),86.1%
same,residual activity,RPS6KA3 KD1 KD2 (human),99%
same,residual activity,SIK2 (human),101%
same,residual activity,SRMS (human),106%
same,residual activity,STK17A (human),104%
same,residual activity,STK24 (human),90.3%
same,residual activity,STK25 (human),95.7%
same,residual activity,TAOK1 (human),106%
same,residual activity,WEE1 (human),88.9%
same,residual activity,ZAP70 (human),95%
